In patent publication US5602161A, “Tetrazolylphenyl pivalate derivatives and medicinal composition containing the same as effective component” (Wakamoto Pharmaceutical Co., Ltd., priority 1994, dated 1997):
Counter-ions that a name gives are not always drawn.

The molecules below were run against T1, human sputum elastase (Homo sapiens, UniProt P08246) (assay: Inhibitory effect on elastase (human sputum), spectrophotometric assay with MeOSuc-Ala-Ala-Pro-Val-pNA). Conditions: S: human sputum elastase; pH 8.0, 37° C.; read-out: IC50.
T1 sequence (P08246 30-247 limits assumed): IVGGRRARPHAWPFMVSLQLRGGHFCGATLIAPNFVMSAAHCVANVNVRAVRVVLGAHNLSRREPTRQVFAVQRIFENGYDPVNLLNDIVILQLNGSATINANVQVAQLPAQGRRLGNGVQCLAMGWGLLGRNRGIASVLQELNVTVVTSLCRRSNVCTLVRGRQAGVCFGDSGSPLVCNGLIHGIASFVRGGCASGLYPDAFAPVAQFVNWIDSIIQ
Format: biochemical
Protocol: Namely, it is a spectrophotometric assay using the synthesized substrate, methoxysuccinyl-alanyl-alanyl- prolyl-valyl-p-nitroanilide(MeOSuc-Ala-Ala-Pro-Val-pNA, Cambridge research biochemical Co.) which has high specificity on neutrophil elastase.
20 μl of a test compound of various concentrations and 20 μl of enzyme solution (13 unit/ml) were added to 400 μl of 0.1M sodium phosphate buffer (pH 8.0). The mixture was incubated at 37° C. for 5 min, and then 20 μl of the substrate was added to the mixture in a final volume of 460 μl. The reaction was conducted by incubating thus obtained mixture at 37° C. for 20 min. The reaction was stopped by the addition of 300 μl of 20% acetic acid into the reaction mixture, and then p-nitroanilide released was measured by the spectrophotometrically at 405 nm.
Inhibition percents of the test compounds were calculated by the following equation:
Inhibition %=[1-(OD 405 nm value of the testing sample-background)/(OD 405 nm value of the control-background)]×100

SMILES | IC50 [nM]
COc1cc(-c2nnn(Cc3ccc(C(=O)O)cc3)n2)ccc1OC(=O)C(C)(C)C [Example 56, 4-[5-(3-Methoxy-4-pivaloyloxyphenyl)tetrazol-2-ylmethyl]benzoic acid] | 420
Cc1cc(-c2nnn(Cc3ccc(C(=O)O)cc3)n2)ccc1OC(=O)C(C)(C)C [Example 55, 4-[5-(3-Methyl-4-pivaloyloxyphenyl)tetrazol-2-ylmethyl]benzoic acid] | 1000
COc1cc(-c2nnn(Cc3cccc(OCCN)c3)n2)ccc1OC(=O)C(C)(C)C [Example 88, 4-[2-[3-(2-Aminoethoxy)benzyl]tetrazol-5-yl]-2-methoxyphenyl pivalate Hydrochloride] | 650
CC(C)(C)C(=O)Oc1ccc(-c2nnn(Cc3ccccc3C(=O)O)n2)cc1 [Example 52, 2-[5-(4-Pivaloyloxyphenyl)tetrazol-2-ylmethyl]benzoic acid] | 350
CC(C)(C)C(=O)Oc1ccc(-c2nnn(CCN)n2)cc1 [Example 92, 4-[2-(2-Aminoethyl)tetrazol-5-yl]phenyl pivalate Hydrochloride] | 1600
CN(C)CCn1nnc(-c2ccc(OC(=O)C(C)(C)C)cc2)n1 [Example 38, 4-[2-(2-Dimethylaminoethyl)tetrazol-5-yl]phenyl pivalate Hydrochloride] | 800
CC(C)(C)C(=O)Oc1ccc(-c2nnn[nH]2)cc1 [Example 3, 4-(1H-Tetrazol-5-yl)phenyl pivalate] | 2000
CC(C)(C)C(=O)Oc1ccc(-c2nnn(C(c3ccccc3)c3ccccc3)n2)cc1 [Example 28, 4-[2-(Diphenylmethyl)tetrazol-5-yl]phenyl pivalate] | 220
CN(C(=O)OC(C)(C)C)c1ccc(Cn2nnc(-c3ccc(OC(=O)C(C)(C)C)cc3)n2)cc1 [Example 39, 4-[2-[4-(N-t-Butoxycarbonyl-N-methylamino)benzyl]tetrazol-5-yl]phenyl pivalate] | 80
CC(C)(C)OC(=O)COc1ccc(Cn2nnc(-c3ccc(OC(=O)C(C)(C)C)cc3)n2)cc1 [Example 32, t-Butyl 4-[5-(4-pivaloyloxyphenyl)tetrazol-2-ylmethyl]phenoxyacetate] | 380
CC(C)(C)OC(=O)COc1ccccc1Cn1nnc(-c2ccc(OC(=O)C(C)(C)C)cc2)n1 [Example 30, t-Butyl 2-[5-(4-pivaloyloxyphenyl)tetrazol-2-ylmethyl]phenoxyacetate] | 380
CN(C)c1ccccc1Cn1nnc(-c2ccc(OC(=O)C(C)(C)C)cc2)n1 [Example 101, 4-[2-[2-(Dimethylamino)benzyl]tetrazol-5-yl]phenyl pivalate] | 380
CN(C)c1ccc(Cn2nnnc2-c2ccc(OC(=O)C(C)(C)C)cc2)cc1 [Example 99, 4-[1-[4-(Dimethylamino)benzyl]tetrazol-5-yl]phenyl pivalate] | 340
CC(C)(C)C(=O)Oc1ccc(-c2nnn(C(C(=O)NCC(=O)O)c3ccccc3)n2)cc1 (stereo not drawn) [Example 70, N-[2-Phenyl-2-[5-(4-pivaloyloxyphenyl)tetrazol-2-yl]acetyl]glycine] | 1000
CN(C)c1cccc(Cn2nnc(-c3ccc(OC(=O)C(C)(C)C)cc3)n2)c1 [Example 100, 4-[2-[3-(Dimethylamino)benzyl]tetrazol-5-yl]phenyl pivalate] | 250
CC(C)(C)C(=O)Oc1ccc(-c2nnn(Cc3cccc(CCCN)c3)n2)cc1 [Example 89, 4-[2-[3-(3-Aminopropyl)benzyl]tetrazol-5-yl]phenyl pivalate Hydrochloride] | 170
C[C@H](NC(=O)c1ccc(Cn2nnc(-c3ccc(OC(=O)C(C)(C)C)cc3)n2)cc1)C(=O)O [Example 57, N-[4-[5-(4-Pivaloyloxyphenyl)tetrazol-2-ylmethyl]benzoyl]-L-alanine] | 420
CC(C)(C)OC(=O)Cn1nnc(-c2ccc(OC(=O)C(C)(C)C)cc2)n1 [Example 10, 4-[2-(t-Butoxycarbonylmethyl)tetrazol-5-yl]phenyl pivalate] | 800
CC(C)(C)C(=O)Oc1ccc(-c2nnn(C(C)(C)C)n2)cc1 [Example 36, 4-[2-(1,1-Dimethylethyl)tetrazol-5-yl]phenyl pivalate] | 800
CC(C)(C)OC(=O)NCCn1nnc(-c2ccc(OC(=O)C(C)(C)C)cc2)n1 [Example 45, 4-[2-[2-(t-Butoxycarbonylamino)ethyl]tetrazol-5-yl]phenyl pivalate] | 130
CN(C(=O)OC(C)(C)C)c1ccc(Cn2nnnc2-c2ccc(OC(=O)C(C)(C)C)cc2)cc1 [Example 40, 4-[1-[4-(N-t-Butoxycarbonyl-N-methylamino)benzyl]tetrazol-5-yl]phenyl pivalate] | 250
CC(C)(C)C(=O)Oc1ccc(-c2nnn(CCO)n2)cc1 [Example 72, 4-[2-(2-Hydroxyethyl)tetrazol-5-yl]phenyl pivalate] | 500
CC(C)(C)C(=O)Oc1ccc(-c2nnn(Cc3ccc([N+](=O)[O-])cc3)n2)cc1 [Example 25, 4-[2-(4-Nitrobenzyl)tetrazol-5-yl]phenyl pivalate] | 280
CC(C)(C)C(=O)Oc1ccc(-c2nnn(Cc3ccccc3OCCN)n2)cc1 [Example 84, 4-[2-[2-(2-Aminoethoxy)benzyl]tetrazol-5-yl]phenyl pivalate Hydrochloride] | 720
CC(C)(C)C(=O)Oc1ccc(-c2nnn(Cc3ccc(C(=O)NCCN)cc3)n2)cc1 [Example 71, N-(2-Aminoethyl)-4-[5-(4-pivaloyloxyphenyl)tetrazol-2-ylmethyl]benzamide Hydrochloride] | 260
CC(C)(C)C(=O)Oc1ccc(-c2nnn(Cc3ccc(C(=O)NCCCCCC(=O)O)cc3)n2)cc1 [Example 68, 6-[N-[4-[5-(4-Pivaloyloxyphenyl)tetrazol-2-ylmethyl]benzoyl]amino]caproic acid] | 200
CC(C)(C)C(=O)Oc1ccc(-c2nnn(Cc3ccc(N4CCCC4)cc3)n2)cc1 [Example 50, 4-[2-(4-Pyrrolidinobenzyl)tetrazol-5-yl]phenyl pivalate] | 1700

Continued by falling IC50, values first:

IC50 [nM] | SMILES
150 | CCCN(C)c1ccc(Cn2nnc(-c3ccc(OC(=O)C(C)(C)C)cc3)n2)cc1 [Example 98, 4-[2-[4-(Methylpropylamino)benzyl]tetrazol-5-yl]phenyl pivalate]
150 | CCN(C)c1ccc(Cn2nnc(-c3ccc(OC(=O)C(C)(C)C)cc3)n2)cc1 [Example 97, 4-[2-[4-(Ethylmethylamino)benzyl]tetrazol-5-yl]phenyl pivalate]
140 | CC(C)(C)C(=O)Oc1ccc(-c2nnn(Cc3ccccc3NS(C)(=O)=O)n2)cc1 [Example 79, 4-[2-[2-(Methylsulfonylamino)benzyl]tetrazol-5-yl]phenyl pivalate]
140 | CC(C)c1ccc(Cn2nnnc2-c2ccc(OC(=O)C(C)(C)C)cc2)cc1 [Example 96, 4-[1-(4-Isopropylbenzyl)tetrazol-5-yl]phenyl pivalate]
130 | COc1ccc(COCCCCCn2nnc(-c3ccc(OC(=O)C(C)(C)C)cc3)n2)cc1 [Example 43, 4-[2-[5-(4-Methoxybenzyloxy)pentyl]tetrazol-5-yl]phenyl pivalate]
110 | CC(C)(C)C(=O)Oc1ccc(-c2nnn(Cc3ccc(CC(=O)O)cc3)n2)cc1 [Example 53, 4-[5-(4-Pivaloyloxyphenyl)tetrazol-2-ylmethyl]phenylacetic acid]
100 | CC(=O)c1ccc(Cn2nnc(-c3ccc(OC(=O)C(C)(C)C)cc3)n2)cc1 [Example 29, 4-[2-(4-Acetylbenzyl)tetrazol-5-yl]phenyl pivalate]
100 | CC(C)(C)OC(=O)COc1cccc(Cn2nnc(-c3ccc(OC(=O)C(C)(C)C)cc3)n2)c1 [Example 31, t-Butyl 3-[5-(4-pivaloyloxyphenyl)tetrazol-2-ylmethyl]phenoxyacetate]
92 | CC(C)(C)C(=O)Oc1ccc(-c2nnn(Cc3cccc(OCC(=O)O)c3)n2)cc1 [Example 82, 3-[5-(4-Pivaloyloxyphenyl)tetrazol-2-ylmethyl]phenoxyacetic acid]
90 | CC(C)(C)C(=O)Oc1ccc(-c2nnn(Cc3ccccc3[N+](=O)[O-])n2)cc1 [Example 27, 4-[2-(2-Nitrobenzyl)tetrazol-5-yl]phenyl pivalate]
84 | CC(C)(C)C(=O)Oc1ccc(-c2nnn(Cc3ccc(OCC(=O)O)cc3)n2)cc1 [Example 83, 4-[5-(4-Pivaloyloxyphenyl)tetrazol-2-ylmethyl]phenoxyacetic acid]
80 | CC(C)(C)C(=O)Oc1ccc(-c2nnn(Cc3ccc(OCCN)cc3)n2)cc1 [Example 86, 4-[2-[4-(2-Aminoethoxy)benzyl]tetrazol-5-yl]phenyl pivalate Hydrochloride]
79 | CSCCC(NC(=O)c1ccc(Cn2nnc(-c3ccc(OC(=O)C(C)(C)C)cc3)n2)cc1)C(=O)O (racemic) [Example 62, N-[4-[5-(4-Pivaloyloxyphenyl)tetrazol-2-ylmethyl]benzoyl]-DL-methionine]
77 | CC(C)(C)C(=O)Oc1ccc(-c2nnn(Cc3cccc(OCCN)c3)n2)cc1 [Example 85, 4-[2-[3-(2-Aminoethoxy)benzyl]tetrazol-5-yl]phenyl pivalate Hydrochloride]
59 | CC(C)(C)C(=O)Oc1ccc(-c2nnn(Cc3ccccc3OCC(=O)O)n2)cc1 [Example 81, 2-[5-(4-Pivaloyloxyphenyl)tetrazol-2-ylmethyl]phenoxyacetic acid]
58 | CC(C)(C)C(=O)Oc1ccc(-c2nnn(Cc3ccc(C(=O)N[C@@H](Cc4ccccc4)C(=O)O)cc3)n2)cc1
30 | CC(C)(C)C(=O)Oc1ccc(-c2nnn(Cc3ccc(C(=O)N[C@@H](CCC(=O)O)C(=O)O)cc3)n2)cc1 [Example 61, N-[4-[5-(4-Pivaloyloxyphenyl)tetrazol-2-ylmethyl]benzoyl]-L-glutamic acid]
29 | CC(C)(C)C(=O)Oc1ccc(-c2nnn(Cc3ccc(C(=O)NCC(=O)O)cc3)n2)cc1 [Example 58, N-[4-[5-(4-pivaloyloxyphenyl)tetrazol-2-ylmethyl]benzoyl]glycine]
